This experiment has as its target T1, sodium-proton exchanger of subtype 3 (NHE3) (Homo sapiens, UniProt P48764).
T1 construct: expressed in transfected cells
T1 sequence (P48764 26-834): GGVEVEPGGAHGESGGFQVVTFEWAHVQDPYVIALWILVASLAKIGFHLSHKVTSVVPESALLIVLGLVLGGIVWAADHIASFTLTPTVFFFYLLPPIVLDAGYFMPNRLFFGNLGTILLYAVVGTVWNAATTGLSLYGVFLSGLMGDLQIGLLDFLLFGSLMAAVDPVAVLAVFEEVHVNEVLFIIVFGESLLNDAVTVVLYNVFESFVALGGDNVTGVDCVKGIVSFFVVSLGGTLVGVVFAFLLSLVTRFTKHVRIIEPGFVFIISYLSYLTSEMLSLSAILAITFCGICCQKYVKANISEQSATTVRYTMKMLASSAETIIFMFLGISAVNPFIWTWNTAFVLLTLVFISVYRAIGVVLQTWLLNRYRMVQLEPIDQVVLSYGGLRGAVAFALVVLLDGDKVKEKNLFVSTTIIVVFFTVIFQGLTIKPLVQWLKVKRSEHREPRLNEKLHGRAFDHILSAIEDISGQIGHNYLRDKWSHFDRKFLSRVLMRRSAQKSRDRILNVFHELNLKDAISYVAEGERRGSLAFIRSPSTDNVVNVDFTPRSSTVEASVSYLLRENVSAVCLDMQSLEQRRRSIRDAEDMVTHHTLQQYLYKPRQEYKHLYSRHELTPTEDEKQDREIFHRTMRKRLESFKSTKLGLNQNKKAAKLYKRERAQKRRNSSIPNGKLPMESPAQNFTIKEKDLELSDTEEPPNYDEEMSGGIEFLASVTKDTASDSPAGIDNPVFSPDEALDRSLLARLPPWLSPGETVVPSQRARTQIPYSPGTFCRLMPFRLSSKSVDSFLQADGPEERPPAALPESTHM
Nature of the experiment: Recovery of intracellular pH (pHi) after acidification in LAP1 cells stably expressing NHE3 (BCECF fluorescence, FLIPR). The format is cell-based. To be noted: LAP1 cells stably expressing NHE3; pH recovery after acidification; range 1 is % inhibition at 10 μM; read-out: Activity range (inhibitory effect on NHE3).
For `N[C@@H]1CCCN([C@H]2CCc3ccccc3[C@@H]2Oc2ccc(N3C(=O)CCC3=O)cc2)C1` (racemic) [Example 326, 1-{4-[rac-trans-(1,2)-2-((R)-3-aminopiperidin-1-yl)-1,2,3,4-tetrahydronaphthalen-1-yloxy]phenyl}pyrrolidine-2,5-dione], the IC50 was 1 to 10 µM.

As to `CC(=O)Nc1cccc(O[C@H]2c3cccc(Cl)c3C[C@@H]2N2CCCC2)c1` (racemic) [Example 649, N-[3-(rac-trans-(1,2)-4-chloro-2-pyrrolidin-1-ylindan-1-yloxy)phenyl]acetamide], the inhibition at 10 µM lay within 20 to 50%.

Consider `CS(=O)(=O)c1ccc(O[C@H]2c3cc(Cl)cc(Cl)c3C[C@@H]2NC2CCCC2)cc1` [Example 747, Cyclopentyl-[trans-(1S,2S)-4,6-dichloro-1-(4-methanesulfonyl-phenoxy)-indan-2-yl]-amine], for which the IC50 is 1 to 10 µM.

Consider `CC(=O)Nc1cccc(O[C@H]2c3cc(Cl)cc(Cl)c3C[C@@H]2N2CCN(C)CC2)c1` [Example 697, N-{3-[trans-(1S,2S)-4,6-dichloro-2-(4-methylpiperazin-1-yl)indan-1-yloxy]phenyl}acetamide], for which the IC50 was in the range of 1 to 10 µM.

`O=C1CCCN1c1ccc(O[C@H]2c3cc(Cl)cc(Cl)c3C[C@@H]2N2CCC2)cc1` [Example 259, 1-[4-((1S,2S)-2-azetidin-1-yl-4,6-dichloroindan-1-yloxy)phenyl]pyrrolidin-2-one]: the inhibition at 10 µM fell in the range of 20 to 50%.

Regarding `CCc1ccc(O[C@@H]2c3ccccc3C[C@H]2N2CCC[C@@H](N)C2)c(C(C)(C)C)c1` (racemic) [Example 49, (R)-1-[rac-trans-(1,2)-1-(2-tert-butyl-4-ethylphenoxy)indan-2-yl]piperidin-3-ylamine], the IC50 fell in the range of 1 to 10 µM.

`CS(=O)(=O)c1ccc(O[C@H]2c3cc(F)cc(Cl)c3C[C@@H]2N2CCCC2)cc1` (racemic) [Example 284, 1-[rac-trans-(1,2)-4-chloro-6-fluoro-1-(4-methanesulfonylphenoxy)indan-2-yl]pyrrolidine]: the IC50 is 1 to 10 µM.

`Fc1ccc(O[C@H]2c3cc(Cl)cc(Cl)c3C[C@@H]2N2CCNCC2)c(-c2cc[nH]n2)c1` [Example 309, 1-{(1S,2S)-4,6-dichloro-1-[4-fluoro-2-(1H-pyrazol-3-yl)phenoxy]indan-2-yl}piperazine]: the IC50 is < 1 µM.

With `CS(=O)(=O)c1ccc(OC2c3ccccc3CC2N2CCCC2)c(Cl)c1` (racemic) [Example 265, 1-[rac-trans-(1,2)-1-(2-chloro-4-methanesulfonylphenoxy)indan-2-yl]pyrrolidine], the IC50 is < 1 µM.

Consider `N[C@H]1CCCN([C@H]2CCc3ccccc3[C@@H]2Oc2ccc3oc(=O)sc3c2)C1` (racemic) [Example 580, 5-[rac-trans-(1,2)-2-((S)-3-aminopiperidin-1-yl)-1,2,3,4-tetrahydronaphthalen-1-yloxy]benzo[1,3]oxathiol-2-one], for which the inhibition at 10 µM lay in the range of 20 to 50%.

`NS(=O)(=O)c1ccc(O[C@H]2c3cc(Cl)cc(Cl)c3C[C@@H]2N2CCCC2)cc1` [Example 457, 4-((1S,2S)-4,6-dichloro-2-pyrrolidin-1-ylindan-1-yloxy)benzenesulfonamide]: the IC50 is < 1 µM.

In the case of `NS(=O)(=O)c1ccc(O[C@@H]2c3ccccc3C[C@H]2NC2CCCC2)c(F)c1` (racemic) [Example 460, 4-(2-cyclopentylaminoindan-1-yloxy)-3-fluorobenzenesulfonamide], the IC50 was < 1 µM.

On to `CC(=O)Nc1cccc(O[C@H]2c3cc(Cl)cc(Cl)c3C[C@@H]2N2CCNCC2)c1` [Example 665, N-[3-(trans-(1S,2S)-4,6-dichloro-2-piperazin-1-ylindan-1-yloxy)phenyl]acetamide], for which the IC50 was < 1 µM.

In the case of `N[C@H]1CCCN([C@@H]2Cc3ccccc3[C@H]2Oc2ccc(S(N)(=O)=O)c(Cl)c2Cl)C1` (racemic) [Example 536, 4-[rac-trans-(1,2)-2-((S)-3-aminopiperidin-1-yl)indan-1-yloxy]-2,3-dichlorobenzenesulfonamide], the IC50 lay within 1 to 10 µM.

`CO[C@@H]1CCN(C2Cc3ccccc3C2Oc2ccc(S(N)(=O)=O)c(Cl)c2Cl)C1` (mixture of isomers) [Example 359, 2,3-dichloro-4-[rac-trans-(1,2)-2-((R)-3-methoxypyrrolidin-1-yl)indan-1-yloxy]benzenesulfonamide]: the IC50 is 1 to 10 µM.

Take `NS(=O)(=O)c1ccc(O[C@H]2c3cc(Cl)ccc3C[C@@H]2N2CCCC2)cc1` (racemic) [Example 473, 4-(rac-trans-(1,2)-6-chloro-2-pyrrolidin-1-ylindan-1-yloxy)benzenesulfonamide]: the IC50 is < 1 µM.

As for `Cn1ccn(-c2ccc(F)c(O[C@H]3c4cc(Cl)cc(Cl)c4C[C@@H]3N3CC[C@@H](O)C3)c2)c1=O` [Example 313, 1-{3-[(1S,2S)-4,6-dichloro-2-((R)-3-hydroxypyrrolidin-1-yl)indan-1-yloxy]-4-fluorophenyl}-3-methyl-1,3-dihydroimidazol-2-one], the IC50 is < 1 µM.

Take `COc1cccc(F)c1O[C@@H]1c2ccccc2C[C@H]1N(C)C1CCNCC1` (racemic) [Example 215, [rac-trans-(1,2)-1-(2-fluoro-6-methoxyphenoxy)indan-2-yl]methylpiperidin-4-ylamine]: the IC50 is 1 to 10 µM.

In the case of `N#Cc1cc(Cl)ccc1O[C@@H]1c2ccccc2C[C@H]1N1CCC(N)C1` (mixture of isomers) [Example 375, 2-[rac-trans-(1,2)-2-(3-aminopyrrolidin-1-yl)indan-1-yloxy]-5-chlorobenzonitrile], the IC50 lay within 1 to 10 µM.

Turning to `CC1(C)OC(=O)N(c2ccc(Cl)c(O[C@H]3c4cc(Cl)cc(Cl)c4C[C@@H]3N3CC[C@@H](O)C3)c2)C1=O` [Example 432, 3-{4-chloro-3-[(1S,2S)-4,6-dichloro-2-((R)-3-hydroxypyrrolidin-1-yl)indan-1-yloxy]phenyl}-5,5-dimethyloxazolidine-2,4-dione], the IC50 was 1 to 10 µM.

Turning to `Clc1ccc2cccc(O[C@H]3c4ccccc4CC[C@@H]3N3CCOCC3)c2n1` (racemic) [Example 395, 2-chloro-8-(rac-trans-(1,2)-2-morpholin-4-yl-1,2,3,4-tetrahydronaphthalen-1-yloxy)quinoline], the inhibition at 10 µM fell in the range of 20 to 50%.

As for `NS(=O)(=O)c1ccc(O[C@H]2c3cc(F)ccc3C[C@@H]2N2CCCC2)cc1` (racemic) [Example 474, 4-(rac-trans-(1,2)-6-fluoro-2-pyrrolidin-1-ylindan-1-yloxy)benzenesulfonamide], the IC50 was in the range of 1 to 10 µM.

Consider `O[C@@H]1CCN([C@H]2Cc3c(Cl)cc(Cl)cc3[C@@H]2Oc2ccc(-n3ccnc3)cc2)C1` [Example 728, (R)-1-[trans-(1S,2S)-4,6-Dichloro-1-(4-imidazol-1-yl-phenoxy)-indan-2-yl]-pyrrolidin-3-ol], for which the IC50 fell in the range of 1 to 10 µM.

For the molecule `Cc1cc2c(O[C@H]3c4ccccc4CC[C@@H]3N3CCOCC3)cccc2[nH]1` (racemic) [Example 399, 2-methyl-4-(rac-trans-(1,2)-2-morpholin-4-yl-1,2,3,4-tetrahydronaphthalen-1-yloxy)-1H-indole], the inhibition at 10 µM is 20 to 50%.

Take `N[C@@H]1CCCN([C@H]2CCc3ccccc3[C@@H]2Oc2cccc(Cl)c2)C1` (racemic) [Example 55, (R)-1-[rac-trans-(1,2)-1-(3-chlorophenoxy)-1,2,3,4-tetrahydronaphthalen-2-yl]piperidin-3-ylamine]: the inhibition at 10 µM fell in the range of 20 to 50%.

Turning to `CN1CCN(c2ccc(Cl)c(O[C@H]3c4cc(Cl)cc(F)c4C[C@@H]3N3CC[C@@H](O)C3)c2)C1=O` [Example 340, 1-{4-chloro-3-[(1S,2S)-6-chloro-4-fluoro-2-((R)-3-hydroxypyrrolidin-1-yl)indan-1-yloxy]phenyl}-3-methylimidazolidin-2-one], the IC50 is < 1 µM.

On to `Cc1nnc(C(C)C)n1-c1ccc(O[C@H]2c3cc(Cl)cc(F)c3C[C@@H]2N2CC[C@@H](O)C2)cc1` [Example 721, (R)-1-{trans-(1S,2S)-6-Chloro-4-fluoro-1-[4-(3-isopropyl-5-methyl-[1,2,4]triazol-4-yl)-phenoxy]-indan-2-yl}-pyrrolidin-3-ol], for which the IC50 was 1 to 10 µM.

Take `CCc1ccc(O[C@@H]2c3ccccc3C[C@H]2N2CCC(CN)CC2)c(C(C)(C)C)c1` (racemic) [Example 609, C-{1-[rac-trans-(1,2)-1-(2-tert-butyl-4-ethylphenoxy)indan-2-yl]piperidin-4-yl}methylamine]: the IC50 is 1 to 10 µM.

Take `CS(=O)(=O)c1ccc(O[C@H]2c3cc(Cl)cc(Cl)c3C[C@@H]2N2CCCN(CCF)CC2)cc1` [Example 303, 1-[trans-(1S,2S)-4,6-dichloro-1-(4-methanesulfonylphenoxy)indan-2-yl]-4-(2-fluoroethyl)-[1,4]diazepane]: the IC50 is < 1 µM.

For `CN(C)CCCN(C)[C@H]1Cc2c(Cl)cc(Cl)cc2[C@@H]1Oc1ccc(S(C)(=O)=O)cc1` [Example 672, N-[trans-(1S,2S)-4,6-dichloro-1-(4-methanesulfonylphenoxy)indan-2-yl]-N,N′,N′-trimethylpropane-1,3-diamine], the IC50 is < 1 µM.

These data come from patent US8822449B2, “Substituted aminoindanes and analogs thereof, and the pharmaceutical use thereof” (Sanofi, priority 2008, dated 2014).
